In this test the test system is PC-3. Briefly: Antiproliferative activity against human PC3 cells at 20 ug/ml after 24 hrs by MTT assay. The test is classed as functional, cell-based. Background: Tetrazolium assays rely on reduction of a dye to a coloured formazan, in cell work by metabolically active cells.

Three compounds from ChEMBL document CHEMBL3286265, “Three new anti-proliferative Annonaceous acetogenins with mono-tetrahydrofuran ring from graviola fruit (Annona muricata)” (Bioorg Med Chem Lett, 2014) can be followed below.

SMILES strings stand for the structures. Calls of active or inactive are those of the source. The calls are words filed in the database; no cut-off is given here.

Turning to `CCCCCCCCCCCC[C@H](O)[C@H]1CC[C@H]([C@H](O)CC(O)CCCCCCCC[C@H](O)CC2=C[C@H](C)OC2=O)O1` (stereo partly drawn), the inhibition result was “Active”. Take `CCCCCCCC[C@@H](O)[C@@H](O)CC[C@H](O)[C@H]1CC[C@H](CCCCCCCCCCC[C@H](O)CC2=C[C@H](C)OC2=O)O1`: the inhibition entry is “Active”. For `CCCCCCCC(O)CCCCCCC[C@@H](O)[C@H]1CC[C@H]([C@H](O)CCCCCCC[C@H](O)CC2=C[C@H](C)OC2=O)O1` (stereo partly drawn), the inhibition entry is “Active”.
